Assay type in all cases: functional
One assay relates to Klebsiella pneumoniae. Nature of the assay: Antibacterial activity against rifampin and streptomycin resistant Klebsiella pneumoniae VK148 assessed as reduction in bacterial cell viability incubated for 4 hrs by resazurin assay. To be noted: VK148, 4 h. (Alamar Blue is a resazurin reagent that responds to reducing activity.)
Assay [1] deals with Escherichia coli. Nature of the assay: Antibacterial activity against Escherichia coli ATCC 25922 assessed as reduction in bacterial cell viability incubated for 4 hrs by resazurin assay. Conditions: ATCC 25922, 4 h.
Assay [2] deals with Escherichia coli. Nature of the assay: Antibacterial activity against Escherichia coli ATCC 25922 assessed as reduction in […] at 60 uM incubated for 4 hrs by resazurin assay relative to control. Set-up: scale not given: the % may be the effect or the level left.

Molecules are shown by their SMILES. In brackets after ≈: the same amount, converted by molar mass. Bridge positions count the residues as written; N and C are the ends. Square brackets hold non-standard residues; d marks the D form. Peptide text beside a SMILES is read from it. ξ: configuration not given here. Thr(3ξ) = CC(O)[C@H](N)C(=O)O

In general, MIC refers to the smallest concentration in the dilution series that meets the test's criterion for growth inhibition. On to `CC[C@H](C)[C@@H]1NC(=O)[C@H](C)NC(=O)[C@H](CO)NC(=O)[C@H](CO)NC(=O)[C@H]([C@@H](C)CC)NC(=O)[C@@H]2CSSC[C@@H]3NC(=O)[C@H](C(C)C)NC(=O)[C@H](CCCCN)NC(=O)[C@@H](CO)NC(=O)[C@H](CCCCN)NC(=O)[C@H]4CSSC[C@H](NC(=O)[C@H](CO)NC(=O)[C@H](CCC(=O)O)NC(=O)CNC(=O)[C@H](CSSC[C@H](NC(=O)CNC1=O)C(=O)N[C@@H](CO)C(=O)N4)NC(=O)[C@@H]1CCCN1C(=O)[C@H]([C@@H](C)CC)NC(=O)CNC(=O)[C@H](CC(N)=O)NC(=O)[C@@H](CCCNC(=N)N)NC(=O)[C@H](Cc1ccc(O)cc1)NC3=O)C(=O)N[C@@H](C(C)C)C(=O)N[C@@H](Cc1c[nH]c3ccccc13)C(=O)N[C@@H]([C@@H](C)CC)C(=O)N1CCC[C@H]1C(=O)N2`, for which the MIC was < 12.5 µM with Klebsiella pneumoniae and 5 µM (≈ 15.7 µg/mL) in the assay with Escherichia coli [1]. For `CC[C@H](C)[C@@H]1NC(=O)[C@H](CO)NC(=O)[C@H](C)NC(=O)[C@H](CO)NC(=O)[C@H](Cc2ccc(O)cc2)NC(=O)[C@@H]2CSSC[C@@H]3NC(=O)[C@H](C(C)C)NC(=O)[C@H](CCCCN)NC(=O)[C@H](Cc4ccc(O)cc4)NC(=O)[C@H](CCCCN)NC(=O)[C@H](CO)NC(=O)[C@@H]4CSSC[C@H](NC(=O)[C@H](C(C)O)NC(=O)[C@H](CCC(=O)O)NC(=O)CNC(=O)[C@H](CSSC[C@H](NC(=O)CNC1=O)C(=O)N[C@@H](CO)C(=O)N4)NC(=O)[C@H](C)NC(=O)CNC(=O)[C@@H]1CCCN1C(=O)[C@H](CC(N)=O)NC(=O)CNC(=O)[C@H](CC(N)=O)NC(=O)[C@H](CC(C)C)NC(=O)[C@H]([C@@H](C)O)NC3=O)C(=O)N[C@@H]([C@@H](C)CC)C(=O)N[C@@H](Cc1c[nH]c3ccccc13)C(=O)NCC(=O)N[C@@H](CCCCN)C(=O)N2` (stereo partly drawn) (cyclo(ACGE[Thr(3ξ)]CIWGKCYSASIGCSCSKYKVCTLNGNPG); disulfide 2-18, 6-20, 11-26), the Activity in the assay on Escherichia coli [2] came out at 50%.

The values are drawn from ChEMBL document CHEMBL4414564, “Viola "inconspicua" No More: An Analysis of Antibacterial Cyclotides” (2019).
